US5922557A, “System for stably expressing a high-affinity camp phosphodiesterase and use thereof” (Merck & Co., Inc., priority 1998, dated 1999)
“Also recorded” adds a separate entry of the source. Like-named read-outs stand apart in the source and are kept apart here.

Experiments:
[1] = tested on: constitutive phosphodiesterase of control cells (VH2); experiment: Constitutive phosphodiesterase activity in control cells (VH2); format: biochemical; conditions: control cells (VH2) in selection media
Protocol: (§1) CHO-K1 cells were lysed by sonication for 10 secs at a power setting of 50% (BRAUNSONIC Model 2000) in an ice cold solution containing 50 mM Tris, pH 7.5; 1 mM EDTA; and 200 μM mercaptoethanol. The soluble and particulate fractions of the cell were obtained by centrifuging the sonicate for 90 min at 100,000×g at 4° C. PDE activity was measured in a solution containing 50 mM Tris, pH 7.5; 10 mM MgCl2 ; 1 mM EDTA; and 100 nM (or indicated) 3H-cAMP (100 ml final volume) in the presence of varying concentrations of inhibitor. The reaction mixture containing enzyme was incubated for 10 min at 30° C. in 96-well View Plates (PACKARD), and terminated by the addition of 50 μl Phosphodiesterase Scintillation Proximity Assay (SPA) Beads ([sequence]) containing 18 mM ZnSO4. The amount of 3H-cAMP hydrolysis was determined by counting the plates in a WALLAC 1450 μBeta LSC counter.

PDE IVh6.1 = PDE IVh6.1 in S. cerevisiae or COS-1 cells; cited from earlier work
cAMP PDE = conditions: membraneous and cytosolic fractions, rat brain; cited from earlier work
[2] = tested on: full-length PDE Iva / HPDE IV; conditions: cited from earlier work
[3] = tested on: catalytic portion of PDE IV; conditions: UCR1 and UCR2 deleted; cited from earlier work
FLAG PDE IVAmet330 [4] = tested on: FLAG PDE IVAmet330
Protocol: as §1
(§2) CHO-K1 cells stably expressing epitope FLAG PDE IV constructs were lysed by sonication for 10 secs at a power setting of 50% (Braunsonic Model 2000) in an ice cold solution containing 50 mM Tris, pH 7.5; 1 mM EDTA; protease inhibitor cocktail (Boehringer, Montreal, QUE). The soluble and particulate fractions of the cell were obtained by centrifuging the sonicate for 90 min at 100,000×g at 40° C.

[5] = tested on: high-affinity rolipram binding site, rat forebrain membranes; conditions: cited from earlier work
patients = conditions: clinic; cited from earlier work
FLAG PDE IVAmet330 [6] = target: T1, FLAG PDE IVAmet330 (Homo sapiens, UniProt P27815, M723I); format: binding; parameters: made in house; conditions: 0.2 to 100 nM [^3 H](R)-rolipram
Target sequence in this assay (P27815 332-886 M723I): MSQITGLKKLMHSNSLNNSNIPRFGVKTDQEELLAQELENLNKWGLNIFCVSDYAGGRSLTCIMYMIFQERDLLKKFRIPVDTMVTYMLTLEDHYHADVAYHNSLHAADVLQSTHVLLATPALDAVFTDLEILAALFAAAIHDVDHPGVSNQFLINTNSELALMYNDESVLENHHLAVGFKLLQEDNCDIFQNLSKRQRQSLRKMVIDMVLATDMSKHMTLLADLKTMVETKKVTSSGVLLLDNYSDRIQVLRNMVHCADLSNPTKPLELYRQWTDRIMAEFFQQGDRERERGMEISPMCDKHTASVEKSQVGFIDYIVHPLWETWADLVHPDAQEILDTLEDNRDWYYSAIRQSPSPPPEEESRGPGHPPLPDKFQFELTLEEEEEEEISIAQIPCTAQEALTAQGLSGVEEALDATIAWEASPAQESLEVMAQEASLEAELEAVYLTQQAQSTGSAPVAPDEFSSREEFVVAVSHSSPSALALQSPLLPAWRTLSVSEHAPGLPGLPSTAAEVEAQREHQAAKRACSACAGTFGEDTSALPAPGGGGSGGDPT
Protocol: CHO-K1 cells stably expressing epitope FLAG PDE IV constructs were lysed by sonication for 10 secs at a power setting of 50% (Braunsonic Model 2000) in an ice cold solution containing 50 mM Tris, pH 7.5; 1 mM EDTA; protease inhibitor cocktail (Boehringer, Montreal, QUE). The soluble and particulate fractions of the cell were obtained by centrifuging the sonicate for 90 min at 100,000×g at 40° C. […] The affinity matrix was washed with column buffer until all unbound protein was eluted from the column as determined with a UV-2 flow cell. Bound material was eluted with column buffer containing 0.5 mg/ml. FLAG peptide at a flow rate of 2 ml/min.
The filters were quickly washed with an ice-cold solution of 50 mM Tris; pH 7.5. […] Non-specific binding amounted to less than 5% of the total measured binding activity.

[7] = target: T2, recombinant full-length human PDE IVa (rhPDEIVa) (Homo sapiens, UniProt P27815, M723I); experiment: Phosphodiesterase Scintillation Proximity Assay, inhibition of soluble rhPDE IVa (100,000×g supernatant of transfected CHO-K1 cells); format: biochemical
T2 construct: a cDNA insert encoding for a full-length human PDE IVa enzyme; made in house; host or cells: CHO-K1 cells, stably transfected (also expressing the prostanoid IP receptor); 100,000xg supernatant of the sonicate
T2 sequence (P27815 whole entry M723I): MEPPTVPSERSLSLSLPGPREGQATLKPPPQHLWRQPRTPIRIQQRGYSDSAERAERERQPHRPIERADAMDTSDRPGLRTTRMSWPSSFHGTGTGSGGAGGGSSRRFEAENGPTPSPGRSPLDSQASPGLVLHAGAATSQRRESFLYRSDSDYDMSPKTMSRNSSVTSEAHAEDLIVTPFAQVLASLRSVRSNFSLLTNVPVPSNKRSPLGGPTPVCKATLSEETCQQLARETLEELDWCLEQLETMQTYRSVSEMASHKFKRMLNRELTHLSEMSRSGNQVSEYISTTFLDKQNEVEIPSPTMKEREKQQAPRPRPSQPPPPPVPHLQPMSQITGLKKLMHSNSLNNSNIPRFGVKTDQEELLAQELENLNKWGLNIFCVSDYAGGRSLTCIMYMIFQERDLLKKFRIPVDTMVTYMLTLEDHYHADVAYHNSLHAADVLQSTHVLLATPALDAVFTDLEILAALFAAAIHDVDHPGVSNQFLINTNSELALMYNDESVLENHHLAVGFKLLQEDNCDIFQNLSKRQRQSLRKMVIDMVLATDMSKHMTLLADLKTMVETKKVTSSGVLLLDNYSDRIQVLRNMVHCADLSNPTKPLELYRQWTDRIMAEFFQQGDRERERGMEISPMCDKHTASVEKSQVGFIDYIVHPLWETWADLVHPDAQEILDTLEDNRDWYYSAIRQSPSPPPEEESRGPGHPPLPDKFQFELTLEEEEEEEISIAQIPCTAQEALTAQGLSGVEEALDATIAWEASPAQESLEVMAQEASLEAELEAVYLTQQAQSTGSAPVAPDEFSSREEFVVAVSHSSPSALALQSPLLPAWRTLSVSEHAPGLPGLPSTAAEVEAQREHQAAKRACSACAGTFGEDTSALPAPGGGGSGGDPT
Protocol: Inhibition of soluble rhPDEIVa by specific inhibitors was examined at 100 nM substrate. Enzyme activity was determined as described in Materials and Methods using the Amersham SPA beads that specifically bind 5'AMP.
Inhibition of soluble rhPDEIVa by specific inhibitors was examined in the presence of 5 mM to 100 mM MgCl2. Enzyme activity was determined as described in Materials and Methods using the Amersham SPA beads that specifically bind 5'AMP in the presence of […] cAMP substrate.

FLAG PDE IVA = FLAG PDE IVA (Homo sapiens, UniProt P27815, M723I); conditions: 150 mM KCl with 3 mg/ml HSA vs HSA alone
FLAG PDE IVA, sequence (P27815 whole entry M723I): as above
Protocol: PDE activity was measured in a solution containing 50 mM Tris, pH 7.5; 10 mM MgCl2; 1 mM EDTA; and 100 nM (or indicated) 3H-cAMP ([…] final volume) in the presence of varying concentrations of inhibitor. The reaction mixture containing enzyme was incubated for 10 min at 30° C. in 96-well View Plates (PACKARD), and terminated by the addition of 50 μl Phosphodiesterase Scintillation Proximity Assay (SPA) Beads ([…]) containing 18 mM ZnSO4. The amount of 3H-cAMP hydrolysis was determined by counting the plates in a WALLAC 1450 μBeta LSC counter.

[8] = tested on: catalytic portion of PDE IV; conditions: UCR1 and UCR2 deleted; cited from earlier work; remark: listed apart in the source
[9] = tested on: PKA in CHO-K1 cells stably expressing PDE IVa; experiment: Whole-cell cAMP dependent protein kinase (PKA) activity ratio; format: cell-based; conditions: with 1 μM PGI2, read-out: apparent EC50 to activate PKA
Protocol: PKA activity ratios were determined as the amount of ^32 P transferred to histone F2B in the presence and absence of cAMP as described in Materials and Methods. Data points represent the fractional PKA activation by incubating cells with the indicated concentrations of inhibitor and […]. Experiments were performed in triplicate. n=3 experiments±SD.
CHO-K1 cells were grown and resuspended as described above except that the Hank's buffer was replaced by a solution containing 0.25M sucrose; 10 mM Tris, pH 7.5; and 0.5 mM EDTA. The cells were preincubated and incubated with 1 μM PGI2 and the indicated compounds at room temperature as described above. The incubations were terminated by the addition of 0.05% Triton X-100 (final) and incubating the cells for 5 min on ice. […] This mixture (final volume 220 μl) was incubated in a waterbath for 30 min at 35° C. and terminated by adding 5 ml of ice cold 5% TCA. The precipatated protein was applied to a Whatman GF/B filter under vacuum and the filter was subsequently washed with 3×5 ml ice cold TCA solution. The amount of -32P incorporation was measured by placing the filters in Aquasol and counting in a BECKMAN LSC 5000. Basal cAMP independent protein kinase activity was determined by the inclusion of 1 μM Protein Kinase A Peptide Inhibitor (19) in the reaction mixture. Maximal cAMP protein kinase activity was determined in the presence of 10 μM cAMP. All determinations were performed in triplicate and activity ratios were calculated as the [(kinase activity in the presence of PDE inhibitor minus cAMP independent kinase activity)/(maximal cAMP kinase activity minus cAMP independent kinase activity)]×100.

[10] = tested on: CHO-K1 cells stably expressing rhPDE IVa; experiment: cells; format: cell-based
Protocol: Levels of cAMP were measured in CHO-K1 cells stably expressing PDE IVa enzyme as outlined in Materials and Methods.
CHO-K1 cells were plated at a density of 10^6 cells/175 cm^2 containing complete media with 500 μg/ml hygromycin. The flasks were maintained in an incubator at 37° C. with 5.0% CO2 for 72 hr. The media was changed and the cells were allowed to grow overnight. The cells were washed and dissociated from the plate with PBS containing 0.5 mM EDTA. Cellular cAMP content was measured by centrifuging the cell suspension at 150 g×10 min and resuspending the cells in a Hanks buffered salt solution at a density of 0.2×10^6 cells/ml. The cells were preincubated at room temperature for 15 min and then incubated with 10 μM prostaglandin I2 (PGI2) and the indicated compound for an additional 10 min. Basal cAMP levels were determined by incubating the cells in 0.1% DMSO. The incubations were terminated by the addition of HCl (0.1N final) and the cells measured for cAMP.
Determinations of whole-cell cAMP content were performed by incubating 100 μl reconstituted rabbit anti-succinyl cAMP serum with 100 μl of the whole-cell reaction or known cAMP standard and 30 pmol of 125I-cAMP TME in a […]™ well (300 μl final volume) at room temperature for 18 h. Total cpm (Bo) was determined in the absence of sample or cAMP standard. The reaction mixture was then aspirated out of the well, and individual wells were counted in a BECKMAN LS 6000SC with the window open from 10-999 for 1 min. The data were expressed as %B/Bo=[(standard or sample cpm--non-specific cpm)/(Bo cpm-non-specific cpm)]×100. Non-specific cpm were determined by incubating only the 125I-cAMP TME with assay buffer (50 mM acetate; pH 5.8) in the ScintiStrip™ well. All determinations were performed in triplicate.

FLAG PDE IVAmet330 [11] = target: T1, FLAG PDE IVAmet330; conditions: KCl and/or HSA
Target sequence in this assay (P27815 332-886 M723I limits assumed): as the sequence (P27815 332-886 M723I) above
Protocol: as §1, §2

U937 cells = experiment: Whole-cell cAMP elevation in U937 cells; format: cell-based, human; conditions: vs RS 14203 and (R)-rolipram; data not presented
HL-60 cells = experiment: Whole-cell cAMP elevation in HL-60 cells; format: cell-based; conditions: vs RS 14203 and (R)-rolipram; data not presented
[12] = tested on: eosinophils from guinea pigs; experiment: Whole-cell cAMP elevation in guinea pig eosinophils; format: cell-based; conditions: vs RS 14203 and (R)-rolipram; data not presented
human neutrophils = experiment: Whole-cell cAMP elevation in human neutrophils; format: cell-based; conditions: vs RS 14203 and (R)-rolipram; data not presented
[13] = tested on: PDE IVA enzyme and various deletion mutants; conditions: cited from earlier work

COc1ccc(C2CNC(=O)C2)cc1OC1CCCC1 (racemic) [rolipram]
rolipram-sensitivity of constitutive phosphodiesterase activity [1]: did not exhibit any rolipram-sensitivity
inhibitory kinetics with respect to substrate (PDE IVh6.1): simple competitive inhibitor
concentrations inhibiting cAMP PDE activity (cAMP PDE): micromolar concentrations
inhibitory kinetics with respect to full-length PDE Iva ([2]; rolipram (racemic)): Mixed inhibitory kinetics
saturable high-affinity rolipram binding [3]: no detectable saturable high-affinity rolipram binding
sensitivity of truncated PDE IVa to inhibition (FLAG PDE IVAmet330 [4]; truncated, catalytically active enzyme): low sensitivity to inhibition by rolipram
difference between measured Kd (binding) and IC50 (enzymatic) [5]: > 1000 fold
nausea in patients (patients): profound episodes of nausea in patients
therapeutic window (patients): extremely narrow therapeutic window
saturable high-affinity binding to truncated enzyme (FLAG PDE IVAmet330 [6]): fails to bind rolipram with high-affinity

COc1ccc([C@@H]2CNC(=O)C2)cc1OC1CCCC1 [(R)-rolipram]
effect of assay solution osmolality on rolipram sensitivity of the enzyme [7]: no effect upon the rolipram sensitivity of the enzyme
inhibition of cAMP hydrolytic activity in the stable clones [7]: completely inhibitable
additional increase in enzyme sensitivity to (R)-rolipram (FLAG PDE IVA): 3 fold
concentration required for inhibition of catalytic portion [8]: at least a micromolar concentration
EC50 ([9]; CHO-K1): 0.168 µM
Hill co-effecient for inhibition of HPDE IV catalytic activity [2]: 0.43
EC50 ([10]; CHO-K1, with 10 μM PGI2 (b116 prints 10 FM), read-out: EC50 for elevating cellular cAMP): 0.486 µM
effect of assay conditions on sensitivity of FLAG PDE IVAmet330 to (R)-rolipram (FLAG PDE IVAmet330 [11]): unaffected

COc1ccc([C@H](Cc2ccncc2)c2ccccc2)cc1OC1CCCC1 [CDP 840]
effect of increased salt / ionic strength on inhibitory potency (IC50) [7]: not substantially affected; also recorded: not appreciably affected; also recorded: not affected by an increase of ionic strength; also recorded: not affected by the increases in assay buffer ionic strength
relative potency against recombinant full-length PDE IVa enzyme [7]: as potent as RS 14203 and more potent than (R)-rolipram
IC50 ([7]; read-out: IC50 for inhibition of soluble PDE IVa activity): 0.009 µM
relative potency at elevating whole-cell cAMP (U937 cells): consistently less potent than RS 14203 and (R)-rolipram
EC50 [9]: 0.319 µM
relative potency at elevating whole-cell cAMP (HL-60 cells): consistently less potent than RS 14203 and (R)-rolipram
relative potency at elevating whole-cell cAMP [12]: consistently less potent than RS 14203 and (R)-rolipram
relative potency / response in elevating whole-cell cAMP ([10]; with PGI2): least potent of the compounds tested, and a maximal "plateau" response was not obtained
relative potency at elevating whole-cell cAMP (human neutrophils): consistently less potent than RS 14203 and (R)-rolipram
discrimination between high- and low-affinity states of the enzyme (FLAG PDE IVAmet330 [4]; truncated vs full-length enzyme): do not discriminate between the two affinity states of the enzyme

COc1ccc(C(=O)Nc2c(Cl)cncc2Cl)cc1OC1CCCC1 [RP 73401]
class of binding sites [13]: single class of high-affinity binding sites
